Data as given in EP0688336B1, “PEPTIDE BORONIC ACID DERIVATIVES HAVING PROTEASE INHIBITING ACTIVITY” (Novartis AG, priority 1993, dated 1994).

Key:
[1] = target: thrombin (Homo sapiens, UniProt P00734); settings: cited from earlier work
[2] = in vivo; cited from earlier work
[3] = test system: pooled citrated human plasma; assay: In vitro coagulation assay: thrombin time (TT); format: biochemical; settings: final thrombin concentration 5 U/ml; 10 min at 37°C preincubation
Experimental: (§1) In vitro coagulation assays are performed with pooled citrated human plasma. Substance to be tested or solvent are incubated with plasma for 10 min at 37°C prior to assay. Thrombin time(TT) determinations are performed at a final thrombin concentration of 5 U/ml. Activated partial thromboplastin time (APTT) is determined by incubating 0.1 ml plasma ± substance to be tested with 0.1 ml purified soya bean phospholipid in ellagic acid (Actin-FS) for 4 min at 37°C and followed by the addition of 0.1 ml CaCl2 (50mM). […] With the compound of Example 1, prolongation of TT above 300 sec is achieved at 1.8 µM, elevation of APTT to 2x the control value is achieved at 4.4 µM.

[4] = test system: pooled citrated human plasma; assay: In vitro coagulation assay: activated partial thromboplastin time (APTT); format: biochemical; settings: Actin-FS, 4 min at 37°C, CaCl2
Experimental: as §1

[5] = test system: Washed human platelets; assay: In vitro platelet aggregation assay induced by thrombin; format: cell-based; settings: aggregation induced by 1 nM human thrombin
Experimental: Washed human platelets are prepared by a modification of the method of Ardlie ([…]. 1970, 19:7-17). Washed platelet suspension (0.46 ml) is kept at 37°C and stirred at 1100 rpm. After the addition of the substance to be tested or solvent. the platelets are maintained for 2 min before aggregation is induced by 1 nM human thrombin. The extent of platelet aggregation is quantitated by the maximum aggregation amplitude and inhibition of aggregation rate observed in the absence of inhibitor.

[6] = test system: thrombus formation; assay: Arterio-venous shunt thrombosis model; format: in vivo; settings: rat
Experimental: In the arterio-venous shunt thrombosis model in the rat, a modification of the model described by Butler et al. (Blood Coag. Fibrinol., Vol. 3, (1992), page 155), the compounds of the invention prevent thrombus formation in a dose dependent manner. Using the compound of Example 1, thrombus formation is inhibited by 21% at a dose of 0.3 mg/kg i.v. and blocked by a dose of 3 mg/kg i.v.

NC(N)=NCCC[C@H](NC(=O)[C@@H]1CCCN1C(=O)[C@H](N)Cc1ccccc1)C(=O)CCl [D-Phe-Pro-Arg-CH2Cl]
inhibition in vitro [1]: ~10^-8 M

N=C(N)NCCC[C@@H](C=O)NC(=O)[C@@H]1CCCN1C(=O)[C@H](N)Cc1ccccc1 [D-Phe-Pro-Arginal]
inhibition in vitro [1]: ~10^-8 M | LD50 value [2]: quite a low

CC(C)(C)OC(=O)NC(C[Si](C)(C)C)C(=O)N1CCCC1C(=O)NC(CCCCO)B1OC2CC3CC(C3(C)C)C2(C)O1 [Example 1, Boc-D-TMSal-Pro-NH-CH[(CH2)4OH]B-OPin]
concentration at which prolongation of TT above 300 sec is achieved [3]: 1.8 µM | concentration at which elevation of APTT to 2x the control value is achieved [4]: 4.4 µM | IC50 [5]: 3.8 nM | thrombus formation is inhibited ([6]; dose of 0.3 mg/kg i.v.): 21% | thrombus formation ([6]; dose of 3 mg/kg i.v.): blocked
